Experimental data from ChEMBL document CHEMBL1144787, “Insect antifeedant sesquiterpene acetals from the liverwort Lepidolaena clavigera. 2. structures, artifacts, and activity” (J Nat Prod, 2008).

Key:
[1] = Cytotoxicity against monkey BSC cells assessed as zone of inhibition at 60 ug/disc; type: cell-based, Macaca mulatta; conditions: rhesus monkey
[2] = test system: Tineola bisselliella; experiment: Survival of Tineola bisselliella larvae at 0.1% w/w relative to control; type: functional
[3] = Antifeedant activity in Tineola bisselliella larvae assessed as loss in wool weight at 0.1% w/w relative to control; type: functional
[4] = test system: Eurhopalus australis; experiment: Survival of Anthrenocerus australis larvae at 0.01% w/w relative to control; type: functional
[5] = Antifeedant activity in Anthrenocerus australis larvae assessed as loss in wool weight at 0.01% w/w relative to control; type: functional
[6] = test system: Tineola bisselliella; experiment: Survival of Tineola bisselliella larvae at 0.01% w/w relative to control; type: functional
[7] = test system: Tineola bisselliella; experiment: Antifeedant activity in Tineola bisselliella larvae assessed as loss in wool weight at 0.01% w/w relative to control; type: functional
[8] = Cytotoxicity against monkey BSC cells assessed as zone of inhibition at 30 ug/disc; type: cell-based, Macaca mulatta; conditions: rhesus monkey
[9] = Antifeedant activity in Anthrenocerus australis larvae assessed as loss in wool weight at 0.025% w/w relative to control; type: functional
[10] = test system: Eurhopalus australis; experiment: Survival of Anthrenocerus australis larvae at 0.025% w/w relative to control; type: functional
[11] = test system: Eurhopalus australis; experiment: Survival of Anthrenocerus australis larvae at 0.05% w/w relative to control; type: functional
[12] = Antifeedant activity in Anthrenocerus australis larvae assessed as loss in wool weight at 0.1% w/w relative to control; type: functional
[13] = Antifeedant activity in Anthrenocerus australis larvae assessed as loss in wool weight at 0.05% w/w relative to control; type: functional
[14] = test system: Eurhopalus australis; experiment: Survival of Anthrenocerus australis larvae at 0.1% w/w relative to control; type: functional

SMILES | inhibition zone (IZ) [1] [mm] | survival at 0.1 % strength [2] [%] | Activity [3] [%] | survival at 0.01 % strength [4] [%] | Activity [5] [%] | survival at 0.01 % strength [6] [%] | Activity [7] [%] | inhibition zone (IZ) [8] [mm] | Activity [9] [%] | survival at 0.025 % strength [10] [%] | survival at 0.05 % strength [11] [%] | Activity [12] [%] | Activity [13] [%] | survival at 0.1 % strength [14] [%]
CO[C@H]1O[C@@H]2C=C(C)[C@H]3C[C@@H]2[C@@]13CC(=O)CC(C)C [METHOXY CLAVIGERIN C] | 1 | 86 | -12 |  |  |  |  |  |  |  |  |  |  | 
CC1(C)C(C=C(Cl)Cl)C1C(=O)OCc1cccc(Oc2ccccc2)c1 (stereo not drawn) [PERMETHRIN] |  |  |  | 96 | -100 | 0 | -100 |  |  |  |  |  |  | 
CC(=O)OC(C(=O)C=C(C)C)[C@]12[C@@H](OC(C)=O)O[C@@H]3C=C(C)[C@H]1C[C@@H]32 (stereo partly drawn) [CLAVIGERIN A] |  | 95 | 2 |  |  |  |  | 1 |  |  |  |  |  | 
CC(=O)O[C@H]1O[C@@H]2C=C(C)[C@H]3C[C@@H]2[C@@]13CC(=O)C=C(C)C [CLAVIGERIN B] |  | 27 | -74 |  |  |  |  | 1 | -34 | 98 | 98 | -78 | -79 | 95
CC(=O)O[C@H]1O[C@@H]2C=C(C)[C@H]3C[C@@H]2[C@@]13CC(=O)CC(C)C [CLAVIGERIN C] |  | 5 | -95 |  |  |  |  | > 4 | -50 | 98 | 97 | -86 | -62 | 96
